Columns and labels:
BRD3 BD1 = biological target: T1, BRD3 BD1 (Homo sapiens, UniProt Q15059); test: Binding assay, BRD3 BD1 to acetylated histone H4 Peptide-Biotin (EPIgeneous Binding Domain Kit A); conditions: for inhibition at 0.3 µM: test compound at 300 nmol/L, read-out: Binding inhibition percentage BRD3 BD1
T1 construct: BRD2 BD1, BRD3 BD1 and BRD4 BD1 (Cisbio); purchased Cisbio
Method in brief: (§1)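 HTRF competition: bromodomain protein (added at 20 nmol/L) and biotinylated tetra-acetyl H4(1-25) peptide (added at 25 nmol/L) were incubated with compound, streptavidin-d2 and anti-GST Eu cryptate for 20 h at room temperature. Inhibition came from the 665/620 nm ratio relative to DMSO; IC50 by four-parameter fit; some compounds were tested only at 300 nmol/L final.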

BRD3 BD2 = biological target: T2, BRD3 BD2 (Homo sapiens, UniProt Q15059); test: Binding assay, BRD3 BD2 to acetylated histone H4 Peptide-Biotin (EPIgeneous Binding Domain Kit B); conditions: for inhibition at 0.3 µM: test compound at 300 nmol/L, read-out: Binding inhibition percentage BRD3 BD2
T2 construct: BRD2 BD2, BRD3 BD2 and BRD4 BD2 (Cisbio); purchased Cisbio
Method in brief: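 HTRF binding of GST-tagged BD2 (20 nmol/L working stock) to biotinylated acetyl-histone H4 peptide (250 nmol/L working stock), using streptavidin-XL665 and anti-GST Eu cryptate. Incubated 20 h at room temperature; 665/620 nm ratio versus DMSO gives % inhibition; IC50 by four-parameter fit, or % inhibition at 300 nmol/L.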

BRD4 BD1 = biological target: T3, BRD4 BD1 (Homo sapiens, UniProt O60885); test: Binding assay, BRD4 BD1 to acetylated histone H4 Peptide-Biotin (EPIgeneous Binding Domain Kit A); conditions: for inhibition at 0.3 µM: test compound at 300 nmol/L, read-out: Binding inhibition percentage BRD4 BD1
T3 construct: BRD2 BD1, BRD3 BD1 and BRD4 BD1 (Cisbio); purchased Cisbio
Method in brief: as §1

[1] = test system: human acute myeloid leukemia cell line MV4-11; test: Cell growth test (Cell Titer Glo) MV4-11; format: cell-based; conditions: 3 to 5 days
Source text: (§2) The human undifferentiated thymoma cell line Ty-82 (JCRB), the human acute myeloid leukemia cell lines MV4-11 (ATCC), MOLM-13 (ATCC) and RS4-11 (ATCC), the human lymphoma cell line Raji (JCRB), the human cervical epidermoid carcinoma cell line Hela (JCRB), the human lung adenocarcinoma cell line A549 (ATCC), the human colon cancer cell lines DLD1 (DS Pharma) and HCT116 (DS Pharma), and the human pancreatic cancer cell line MIAPACA-2 (ATCC) were used to carry out a cell growth test.
(§3) Ty-82, MV4-11, MOLM-13, RS4-11, Raji and DLD1 were each seeded in a well plate, in which Roswell Park Memorial Institute (RPMI)-1640 medium supplemented with penicillin/streptomycin and fetal bovine serum (FBS) with a final concentration of 10% was placed. Hela was seeded in Dulbecco's Modified Eagle's medium (DMEM) supplemented with penicillin/streptomycin and FBS with a final concentration of 10%. A549 and MIAPACA-2 were each seeded in a well plate, in which Minimum Essential Medium (MEM) supplemented with penicillin/streptomycin and FBS with a final concentration of 10% was placed. HCT116 was seeded in a well plate, in which McCoy's 5A medium supplemented with penicillin/streptomycin and FBS with a final concentration of 10% was placed.
(§4) Thereafter, a medium containing a test compound serially diluted with DMSO, or DMSO, was added to each well of the plate, in which the cells had been seeded, and the obtained mixture was then cultured under conditions of 37° C. and 5% CO2 for 3 to 5 days. Cell Titer Glo reaction solution (Promega) was added to the culture, and the amount of luminescence was then measured using Envision plate reader (PerkinElmer). Since the amount of luminescence is in proportion to the concentration of adenosine triphosphate (ATP) in cells, the amount of luminescence was used as an indicator of the number of living cells. The growth inhibition percentage of the test compound in each concentration was calculated according to the following equation. Growth inhibition percentage (%)=(amount of luminescence in test compound−added well)/(amount of luminescence in DMSO−added well)×100
(§5) The growth inhibition percentage of the test compound in each concentration was plotted by performing a non-linear regression analysis [(log (inhibitor) vs. response—Variable slope (four parameters)], using Graphpad prism 5, and a 50% growth inhibitory concentration [GI50 (nmol/L)] was then calculated.

[2] = test system: human acute myeloid leukemia cell line MOLM-13; test: Cell growth test (Cell Titer Glo) MOLM-13; format: cell-based; conditions: 3 to 5 days
Source text: as §2, §3, §4, §5

[3] = test system: MV4-11 subcutaneously transplanted tumor; test: Medicinal effect test, MV4-11-subcutaneously-transplanted cancer-bearing mouse models, oral administration; format: in vivo; conditions: orally, once per day, 14 days, BALB/c nu/nu mice
Procedure: The human acute myeloid leukemia cell line MV4-11 (ATCC) was suspended in a mixture of RPMI-1640 medium and Matrigel (Corning), and the obtained mixture was then subcutaneously transplanted into 6-week-old female BALB/c nu/nu mice (CLEA Japan, Inc.). After confirming that the average tumor volume exceeded 200 mm^3, a test compound was dissolved in a solvent (a 0.5% methyl cellulose aqueous solution or water containing 1 equivalent of hydrochloric acid), and the obtained solution was then orally administered to the mice at a daily dose of 10 to 30 mg/kg, once per day, for 14 days. As a negative control, a solvent administration group involving administration of a 0.5% methyl cellulose aqueous solution was established. The tumor diameter was measured on a daily basis, and the tumor volume was calculated. The tumor volume was calculated by measuring the major axis and minor axis of the tumor and then applying the following equation. Tumor volume (mm^3)=[major axis (mm)×minor axis (mm)×minor axis (mm)]/2
T/C (%) was calculated from the average tumor volume of each group according to the following equation, and medicinal effects were then evaluated. T/C(%)=[1−(average tumor volume of drug administration group)/(average tumor volume of solvent administration group)]×100%

T1 sequence (Q15059 34-140 limits assumed): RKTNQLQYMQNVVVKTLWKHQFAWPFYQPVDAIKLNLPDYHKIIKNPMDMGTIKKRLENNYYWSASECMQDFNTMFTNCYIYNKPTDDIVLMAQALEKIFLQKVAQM
T2 sequence (Q15059 306-415 limits assumed): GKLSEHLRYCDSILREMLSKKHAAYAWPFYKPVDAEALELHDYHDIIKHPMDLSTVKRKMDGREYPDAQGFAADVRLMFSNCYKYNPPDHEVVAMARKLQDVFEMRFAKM

Row | Compound | IC50 (BRD3 BD1) | inhibition at 0.3 µM (BRD3 BD1) | IC50 (BRD3 BD2) | inhibition at 0.3 µM (BRD3 BD2) | IC50 (BRD4 BD1) | inhibition at 0.3 µM (BRD4 BD1) | GI50 [1] | GI50 [2] | T/C (%) ([3]; 10 mg/kg) | T/C (%) ([3]; 30 mg/kg)
1 | CCn1c(=O)cc(C2CCN(C)CC2)c2cc(C(=O)N(C)c3ccc(C)cc3)ccc21 [Example 14, 1-Ethyl-N-methyl-N-(4-methylphenyl)-4-(1-methylpiperidin-4-yl)-2-oxo-1,2-dihydroquinoline-6-carboxamide] | 4 nM | 94% | 70 nM | 83% | 5 nM | 93% | 16 nM | 32 nM | 34% | 45%
2 | CCn1c(=O)cc(C2CCN(C)CC2)c2cc(C(=O)N(C)c3ccc4c(c3)CCC4)ccc21 [Example 17, N-(2,3-dihydro-1H-inden-5-yl)-1-ethyl-N-methyl-4-(1-methylpiperidin-4-yl)-2-oxo-1,2-dihydroquinoline-6-carboxamide] | 3 nM | 94% | 14 nM | 91% | 3 nM | 94% | 8 nM | 16 nM | 21% | 49%
3 | CCn1c(=O)cc(N2CCOCC2)c2cc(-n3c(-c4ccc(Cl)cc4)c[nH]c3=O)ccc21 [Example 245, 6-(5-(4-chlorophenyl)-2-oxo-2,3-dihydro-1H-imidazol-1-yl)-1-ethyl-4-(morpholin-4-yl)quinolin-2(1H)-one] | 37 nM | 90% | 4 nM | 92% | 20 nM | 91% | 15 nM | 37 nM | – | 42%

Reference: patent US10987349B2, “Antitumor agent and bromodomain inhibitor” (FUJIFILM Corporation, priority 2016, dated 2021)
